Assay results: ChEMBL document CHEMBL3616383, “Discovery of novel 5,6,7,8-tetrahydro[1,2,4]triazolo[4,3-a]pyridine derivatives as γ-secretase modulators” (Bioorg Med Chem Lett, 2015)

Tests used:
[1] = Inhibition of gamma-secretase in rat primary neuronal cells assessed as reduction in amyloid beta (1 to 40) production; assay type: cell-based; details: Primary neuron
Mus musculus [2] = test: Reduction in amyloid beta (1 to 42) levels in C57BL/6J mouse plasma at 10 mg/kg, po after 3 hrs; assay type: functional
[3] = Drug level in C57BL/6J mouse plasma at 10 mg/kg, po after 3 hrs; assay type: ADME, organism-based
Mus musculus [4] = test: Reduction in amyloid beta (1 to 40) levels in C57BL/6J mouse brain at 10 mg/kg, po after 3 hrs; assay type: functional
[5] = Drug level in C57BL/6J mouse cortex at 10 mg/kg, po after 3 hrs; assay type: ADME, organism-based; details: read-out: Drug uptake
[6] = Inhibition of gamma-secretase-mediated Notch processing in rat primary neuronal cells; assay type: cell-based; details: Primary neuron
[7] = Inhibition of gamma-secretase in rat primary neuronal cells assessed as reduction in amyloid beta (1 to 42) production; assay type: cell-based; details: Primary neuron
Mus musculus [8] = test: Reduction in amyloid beta (1 to 42) levels in C57BL/6J mouse brain at 10 mg/kg, po after 3 hrs; assay type: functional
Mus musculus [9] = test: Reduction in amyloid beta (1 to 40) levels in C57BL/6J mouse plasma at 10 mg/kg, po after 3 hrs; assay type: functional
[10] = Lipophilicity, log D of the compound at pH 7.4 by reversed phase chromatography; assay type: physicochemical; details: buffer

Compound | IC50 [7] [nM] | chromatographic logD [10] | also measured
COc1cc(-c2nnc3n2CCC[C@@H]3c2ccc(Cl)cc2C(F)(F)F)ccc1-c1cnc(C)o1 | 60 | 3.5 | IC50 [1]: 490 nM; % of vehicle at 10 mg/kg (Mus musculus [2]): 31%; concentration at 3 h [3]: 6450 ng/mL; % of vehicle at 10 mg/kg (Mus musculus [4]): 75%; concentration at 3 h [5]: 2330 ng/g; IC50 [6]: > 10000 nM; % of vehicle at 10 mg/kg (Mus musculus [8]): 50%; % of vehicle at 10 mg/kg (Mus musculus [9]): 63%
COc1cc(-c2nnc(Cc3ccc(Cl)c(Cl)c3)[nH]2)ccc1-c1cnc(C)o1 | 2000 | 4.1 | 
COc1cc(-c2nnc3n2CCCCC3c2ccc(Cl)c(Cl)c2)ccc1-c1cnc(C)o1 (stereo not drawn) | 220 | 3.5 | 
COc1cc(-c2nnc3n2CCC3c2ccc(Cl)c(Cl)c2)ccc1-c1cnc(C)o1 (stereo not drawn) | 630 | 3.3 | 
COc1cc(-c2nnn3c2CCCC3c2ccc(Cl)c(Cl)c2)ccc1-c1cnc(C)o1 (stereo not drawn) | 210 | 4.2 | 
COc1cc(-c2nnc3n2CCCC3c2cc(C(F)(F)F)ccc2C(F)(F)F)ccc1-c1cnc(C)o1 (stereo not drawn) | 300 | 3.3 | 
COc1cc(-c2nnc3n2CCCC3c2cccc(C(F)(F)F)c2)ccc1-c1cnc(C)o1 (stereo not drawn) | 370 | 2.8 | 
COc1cc(-c2nnc3n2CCC[C@H]3c2ccc(Cl)cc2C(F)(F)F)ccc1-c1cnc(C)o1 | 830 | 3.5 | 
COc1cc(-c2nnc3n2CCCC3c2ccc(Cl)c(Cl)c2)ccc1-c1cnc(C)o1 (stereo not drawn) | 210 | 3.2 | 
COc1cc(-c2nnc3n2CCCC3c2ccccc2C(F)(F)F)ccc1-c1cnc(C)o1 (stereo not drawn) | 380 | 3 | 
COc1cc(-c2nnc3n2CCCC3c2ccc(Cl)cc2)ccc1-c1cnc(C)o1 (stereo not drawn) | 570 | 2.8 | 
COc1cc(-c2nnc3n2CCOC3c2ccc(Cl)c(Cl)c2)ccc1-c1cnc(C)o1 (stereo not drawn) | 530 | 3.1 | 
COc1cc(-c2nnc3n2CCC=C3c2ccc(Cl)c(Cl)c2)ccc1-c1cnc(C)o1 | 600 | 3.6 | 
COc1cc(-c2nnc3n2CCCC3c2ccc(C(F)(F)F)cc2)ccc1-c1cnc(C)o1 (stereo not drawn) | 510 | 2.9 | 
COc1cc(-c2nnc3n2CCCC3c2ccc(F)cc2)ccc1-c1cnc(C)o1 (stereo not drawn) | 1500 | 2.4 | 
COc1cc(-c2nnc3n2CCCC3c2ccc(N3CCOCC3)cc2)ccc1-c1cnc(C)o1 (stereo not drawn) | 2300 | 2.3 | 
COc1cc(-c2nnc3n2CCCC3c2ccc(Cl)cc2C(F)(F)F)ccc1-c1cnc(C)o1 (stereo not drawn) | 84 | 3.5 | 
COc1cc(-c2nnc3n2CCCC3c2ccc(Cl)c(C(F)(F)F)c2)ccc1-c1cnc(C)o1 (stereo not drawn) | 220 | 3.2 | 
COc1cc(-c2nc3n(n2)CCCC3c2ccc(Cl)c(Cl)c2)ccc1-c1cnc(C)o1 (stereo not drawn) | 860 | 4.4 | 
COc1ccc(C2CCCn3c(-c4ccc(-c5cnc(C)o5)c(OC)c4)nnc32)cc1 (stereo not drawn) | 1900 | 2.4 | 
